Measured values taken from US20240294551A1 (AMGEN INC., priority 2022, published 2024).

Legend:
[1] = biological target: His-tagged KRAS G12D protein (Homo sapiens (Human), UniProt P01116, G12D); test: KRAS G12D TR-FRET Assay; type: binding; details: read-out: KRAS G12D Binding IC50
In short: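 Each incubation ran at room temperature: enzyme with compound for 30 minutes, peptide for one hour, and detection reagents (0.4 nM europium anti-6×His, 5 nM streptavidin-d2) for one hour more. Protein and peptide stocks were each diluted to 20 nM before addition.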

[2] = biological target: GDP-bound KRAS protein (aa 1-169), containing both G12D and C118A amino acid substitutions (Homo sapiens (Human), UniProt P01116, C118A/G12D); test: KRAS G12D Coupled Nucleotide Exchange Assay; type: biochemical; details: read-out: KRAS G12D Coupled Exchange IC50
Sequence of GDP-bound KRAS protein (aa 1-169), containing both G12D and C118A amino acid substitutions (P01116 other isoform, or with tags, fused parts or gaps G12D/C118A): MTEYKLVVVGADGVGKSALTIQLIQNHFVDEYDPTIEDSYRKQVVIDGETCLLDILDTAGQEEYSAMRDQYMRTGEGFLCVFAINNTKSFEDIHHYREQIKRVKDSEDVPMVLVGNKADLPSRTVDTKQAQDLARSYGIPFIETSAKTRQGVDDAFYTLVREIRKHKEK

[3] = system: Phosphorylation of ERK1/2 in AsPC-1 cells; test: Phospho-ERK1/2 MSD Assay; type: cell-based, human; details: Homo sapiens, ASPC1, 2 h, read-out: 2 h p-ERK (AsPC-1 cells), IC50
In short: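 Read-out: MSD electrochemiluminescent detection of phosphorylated ERK1/2 in whole-cell lysates, fitted to a 4-parameter logistic curve for IC50. Prior to lysis, AsPC-1 cells (25,000 per well) received a 2 h compound dose-response at 37 °C.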

AsPC-1 cells = test: AsPC-1 CTG Assay (CellTiter-Glo cell viability); type: cell-based, human; details: Homo sapiens, ASPC1, 72 h, AsPC-1, 72 h; first value of the cell; read-out: G12D/C/V Cell Proliferation CTG (72 h) AsPC-1
In short: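 IC50 values derive from 4-parameter logistic fits of CellTiter-Glo luminescence, expressed relative to DMSO. Compound dilution series were applied to overnight-seeded AsPC-1 or SW620 cells (RPMI 1640, 10% FBS) for 72 h at 37 °C, 5% CO2.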

MIA PaCa-2 cells = test: MIA PaCa-2 CTG Assay (CellTiter-Glo cell viability); type: cell-based, human; details: Homo sapiens; Mia PaCa-2, 72 h; second value of the cell; read-out: G12D/C/V Cell Proliferation CTG (72 h) Mia PaCa-2
In short: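 IC50 values come from a 4-parameter logistic fit of CellTiter-Glo luminescence, normalized to DMSO control, after 72 h compound exposure at 37° C, 5% CO2. Cells grew in RPMI 1640 plus 10% FBS and were seeded at 1.67E+04 cells/mL one night before dosing.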

Sequence of His-tagged KRAS G12D protein (P01116 other isoform, or with tags, fused parts or gaps G12D): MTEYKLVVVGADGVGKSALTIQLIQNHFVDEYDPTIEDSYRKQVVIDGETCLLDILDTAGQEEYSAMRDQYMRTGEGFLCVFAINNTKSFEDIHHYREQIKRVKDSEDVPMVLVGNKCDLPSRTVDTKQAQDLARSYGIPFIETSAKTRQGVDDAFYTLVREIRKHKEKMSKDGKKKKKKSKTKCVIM

| SMILES | IC50 [1] [nM] | IC50 [2] [nM] | IC50 [3] [nM] | IC50 (AsPC-1 cells) [nM] | IC50 (MIA PaCa-2 cells) [nM] |
| --- | --- | --- | --- | --- | --- |
| Fc1c2ncc3c(nc(OC[C@@]45CCCN4C[C@H](F)C5)nc13)N1CCCC[C@H](C1)c1cnn(n1)CCCc1c(Cl)cc3[nH]ncc3c1-2 [Example 296, (1R)-10-chloro-33-fluoro-24-(((2R,7aS)-2-fluorotetrahydro-1H-pyrrolo[1,2-a]pyrrol-7a(5H)-yl)methoxy)-4,5,13,14,19,23,25,27,34-nonaazaheptacyclo[25.4.1.1~2,5~.1~18,22~.0~9,17~.0~12,16~.0~21,26~]tetratriaconta-2(34),3,9,11,14,16,18(33),19,21,23,25-undecaene] | 4 | 4 | 12.6 | 150 | 53 |
| O=C1OCCCc2c(Cl)cc3[nH]ncc3c2-c2cc3nc(OC[C@@]45CCCN4C[C@H](F)C5)nc(c3cn2)N2CCOC[C@H](C2)O1 [Example 303, (26S)-18-chloro-4-(((2R,7aS)-2-fluorotetrahydro-1H-pyrrolo[1,2-a]pyrrol-7a(5H)-yl)methoxy)-23,25,28-trioxa-1,3,5,9,14,15-hexaazahexacyclo[24.4.1.1~6,10~.0~2,7~.0~11,19~.0~12,16~]dotriaconta-2,4,6,8,10(32),11,13,16,18-nonaen-24-one] | 4 | 2 | 10 | 155 | 75 |
| CN(C)CC1(COc2nc3c4cc(F)c(c(F)c4n2)-c2c(c(Cl)cc4[nH]ncc24)CCCOC(=O)O[C@@H]2COCCN3C2)CC1 [Example 305, p-(26S)-18-chloro-4-((1-((dimethylamino)methyl)cyclopropyl)methoxy)-9,32-difluoro-23,25,28-trioxa-1,3,5,14,15-pentaazahexacyclo[24.4.1.1~6,10~.0~2,7~.0~11,19~.0~12,16~]dotriaconta-2,4,6,8,10(32),11,13,16,18-nonaen-24-one] | 4 | 3 | 17.7 | 61 | 134 |
| CN1C[C@H](F)C[C@H]1COc1nc2c3cnc(c(F)c3n1)-c1c(c(Cl)cc3[nH]ncc13)CCOC(=O)O[C@H]1C[C@@]3(CCCN2C3)C1 [Example 320, (1S,3R)-10-chloro-32-fluoro-24-(((2S,4R)-4-fluoro-1-methyl-2-pyrrolidinyl)methoxy)-4,6-dioxa-13,14,19,23,25,27-hexaazaheptacyclo[25.3.1.1~1,3~.1~18,22~.0~9,17~.0~12,16~.0~21,26~]tritriaconta-9,11,14,16,18(32),19,21,23,25-nonaen-5-one] | 4 | 3 | 13.8 | 137 | 80 |
| Cc1cc2[nH]ncc2c2c1CCOC(=O)O[C@H]1C[C@@]3(CCCN(C3)c3nc(OC[C@@H]4C[C@@H](F)CN4C)nc4c(F)c-2ncc34)C1 [Example 321, (1S,3R)-32-fluoro-24-(((2S,4R)-4-fluoro-1-methyl-2-pyrrolidinyl)methoxy)-10-methyl-4,6-dioxa-13,14,19,23,25,27-hexaazaheptacyclo[25.3.1.1~1,3~.1~18,22~.0~9,17~.0~12,16~.0~21,26~]tritriaconta-9,11,14,16,18(32),19,21,23,25-nonaen-5-one] | 5 | 2 | 25 | 186 | 162 |
| CN1[C@H](COc2nc3c4cnc(c(F)c4n2)-c2c(c(Cl)cc4[nH]ncc24)CCCOC(=O)O[C@@H]2COCCN3C2)C[C@H]2C[C@H]21 [Example 329, (26S)-18-chloro-32-fluoro-4-(((1R,3S,5R)-2-methyl-2-azabicyclo[3.1.0]hexan-3-yl)methoxy)-23,25,28-trioxa-1,3,5,9,14,15-hexaazahexacyclo[24.4.1.1~6,10~.0~2,7~.0~11,19~.0~12,16~]dotriaconta-2,4,6,8,10(32),11,13,16,18-nonaen-24-one] | 14 | 7 | 206 | 402 | 530 |
| CN1[C@H](COc2nc3c4cnc(c(F)c4n2)-c2c(c(Cl)cc4[nH]ncc24)CCCOC(=O)O[C@@H]2COCCN3C2)C[C@@H]2C[C@@H]21 [Example 330, (26S)-18-chloro-32-fluoro-4-(((1S,3S,5S)-2-methyl-2-azabicyclo[3.1.0]hexan-3-yl)methoxy)-23,25,28-trioxa-1,3,5,9,14,15-hexaazahexacyclo[24.4.1.1~6,10~.0~2,7~.0~11,19~.0~12,16~]dotriaconta-2,4,6,8,10(32),11,13,16,18-nonaen-24-one] | 4 | 2 | 20 | 128 | 54 |
| O=C1OCCCc2c(Cl)cc3[nH]ncc3c2-c2ncc3c(nc(OC[C@@]45CCCN4C[C@@H](F)C5)nc3c2F)N2CCOC[C@H](C2)O1 [Example 360, (26S)-18-chloro-32-fluoro-4-(((25,7aS)-2-fluorotetrahydro-1H-pyrrolo[1,2-a]pyrrol-7a(5H)-yl)methoxy)-23,25,28-trioxa-1,3,5,9,14,15-hexaazahexacyclo[24.4.1.1~6,10~.0~2,7~.0~11,19~.0~12,16~]dotriaconta-2,4,6(32),7,9,11,13,16,18-nonaen-24-one] | 10 | 3 | 118 | 457 | 344 |

Now from value to compound:

| IC50 [1] [nM] | IC50 [2] [nM] | IC50 [3] [nM] | IC50 (AsPC-1 cells) [nM] | IC50 (MIA PaCa-2 cells) [nM] | SMILES |
| --- | --- | --- | --- | --- | --- |
| 5 | 3 | 35.1 | 183 | 33 | CN1C[C@H](F)C[C@H]1COc1nc2c3cnc(c(F)c3n1)-c1c(c(Cl)cc3[nH]ncc13)CCCOC(=O)O[C@]1(C)COCCN2C1 [Example 318, (26S)-18-chloro-32-fluoro-4-(((2S,4R)-4-fluoro-1-methyl-2-pyrrolidinyl)methoxy)-26-methyl-23,25,28-trioxa-1,3,5,9,14,15-hexaazahexacyclo[24.4.1.1~6,10~.0~2,7~.0~11,19~.0~12,16~]dotriaconta-2,4,6,8,10(32),11,13,16,18-nonaen-24-one] |
| 7 | 2 | 41.5 | 268 | 35 | CN1CCC[C@H]1COc1nc2c3cnc(c(F)c3n1)-c1c(c(Cl)cc3[nH]ncc13)CCCOC(=O)O[C@]1(CF)COCCN2C1 [Example 338, (26S)-18-chloro-32-fluoro-26-(fluoromethyl)-4-(((2S)-1-methyl-2-pyrrolidinyl)methoxy)-23,25,28-trioxa-1,3,5,9,14,15-hexaazahexacyclo[24.4.1.1~6,10~.0~2,7~.0~11,19~.0~12,16~]dotriaconta-2,4,6,8,10(32),11,13,16,18-nonaen-24-one] |
| 4 | 1 | 2.5 | 42 | 17 | O=C1OCCCc2c(Cl)cc3[nH]ncc3c2-c2ncc3c(nc(OC[C@@]45CCCN4C[C@H](F)C5)nc3c2F)N2CCCC[C@](CF)(C2)O1 [Example 340, (26R)-18-chloro-32-fluoro-26-(fluoromethyl)-4-(((2R,7aS)-2-fluorotetrahydro-1H-pyrrolo[1,2-a]pyrrol-7a(5H)-yl)methoxy)-23,25-dioxa-1,3,5,9,14,15-hexaazahexacyclo[24.4.1.1~6,10~.0~2,7~.0~11,19~.0~12,16~]dotriaconta-2,4,6,8,10(32),11,13,16,18-nonaen-24-one] |
| 3 | 1 | 1.9 | 22 | 3 | [2H]C([2H])([2H])[C@@]12COCCN(C1)c1nc(OC[C@@]34CCCN3C[C@H](F)C4)nc3c(F)c(ncc13)-c1c(c(Cl)cc3[nH]ncc13)CCCOC(=O)O2 [Example 353, (26S)-18-chloro-32-fluoro-4-(((2R,7aS)-2-fluorotetrahydro-1H-pyrrolo[1,2-a]pyrrol-7a(5H)-yl)methoxy)-26-(~2~H_3_)methyl-23,25,28-trioxa-1,3,5,9,14,15-hexaazahexacyclo[24.4.1.1~6,10~.0~2,7~.0~11,19~.0~12,16~]dotriaconta-2,4,6(32),7,9,11,13,16,18-nonaen-24-one] |
| 12 | 4 | 101 | 410 | 107 | C[C@@]12COCCN(C1)c1nc(OC[C@@]34CCCN3C[C@@H](F)C4)nc3c(F)c(ncc13)-c1c(c(Cl)cc3[nH]ncc13)CCCOC(=O)O2 [Example 359, (26S)-18-chloro-32-fluoro-4-(((25,7aS)-2-fluorotetrahydro-1H-pyrrolo[1,2-a]pyrrol-7a(5H)-yl)methoxy)-26-methyl-23,25,28-trioxa-1,3,5,9,14,15-hexaazahexacyclo[24.4.1.1~6,10~.0~2,7~.0~11,19~.0~12,16~]dotriaconta-2,4,6(32),7,9,11,13,16,18-nonaen-24-one] |
